Laboratory results: article PMC6534212, “Synthesis and biological evaluation of 3–(4-aminophenyl)-coumarin derivatives as potential anti-Alzheimer’s disease agents” (Journal of Enzyme Inhibition and Medicinal Chemistry, 2019)
Entries after “also recorded” stand apart in the source; their conditions may differ.

Columns and labels:
BuChE from equine serum = molecular target: T1, BuChE from equine serum (Equus caballus, UniProt P81908); assay: biochemical; assay type: biochemical; settings: for IC50: BuChE from equine serum, mean ± SD (n=3); for BuChE inhibitory activity (in words): verbal summary of Table 2, comparison with donepezil
T1 construct: Butyrylcholinesterase (BuChE, from equine serum, Aladdin, Shanghai, China); purchased Aladdin, Shanghai, China; host or cells: equine serum
Procedure: (§1) In the experiment, 0.05 mol/L phosphate buffered saline (PBS) of pH 8.0 was prepared first, and then the following solutions were prepared: 1.5 mmol/L Acetylthiocholine iodide (ATChI); 0.75 mmol/L 5, 5'-Dithiobis-(2-nitrobenzoic acid) (DTNB, Sigma Aldrich, St. Louis, MO); 0.2 U/mL Acetylcholinesterase (AChE, from […], Macklin); 0.5 U/mL Butyrylcholinesterase (BuChE, from equine serum, Aladdin, Shanghai, China); 1.5 mmol/L S-Butyrylthiocholine iodide (BTChI, Sigma Aldrich, St. Louis, MO). 4% sodium dodecyl sulphate (SDS) was prepared with secondary water. […] All solutions were stored in a refrigerator at 4 °C.
(§2) The AChE/BuChE inhibitory activity of the 3–(4-aminophenyl)-coumarin derivatives was determined by the method of Ellaman[28] with slight modifications. The experiment was divided into control group, sample blank group and sample group. Take a series of test tubes, the reagents were loaded in test tubes at the dose of Table 6. After incubation at 37 °C for 20 min, quickly add 1 mL of 4% SDS to stop the reaction. […] All experiments were run in triplicate. The absorbance was determined by UV spectrophotometer, and the inhibition rate of AChE and the IC50 value of each sample were calculated according to the formula. Inhibition rate % = {[(AC−AS)−ASB]/AC} ×100%, where AC (no sample added) is the absorbance of control group; AS is the absorbance of sample group; ASB (add sample solution but no substrate ATChI added) is the absorbance of sample blank group.
The method for determining BuChE is the same as the method for measuring AChE. The sample can be added with reference to Table 6, AChE is changed to BuChE, and the substrate ATChI is changed to substrate BTChI. The order of loading and the amount of loading are the same as Table 6. The absorbance was determined by UV spectrophotometer, and the inhibition rate of BuChE and the IC50 value of each sample were calculated according to the formula. The formula used is the same as AChE.

[1] = molecular target: T2, AChE from Electrophorus electricus (Electrophorus electricus, UniProt O42275); assay: biochemical; assay type: biochemical; settings: for IC50: AChE from Electrophorus electricus, mean ± SD (n=3); for Selectivity AChE/BuChE (in words): verbal summary of SI; for AChE inhibitory activity (in words): verbal summary of Table 2
T2 construct: purchased Macklin
Procedure: as §1, §2

[2] = tested on: aluminium trichloride-induced zebrafish juveniles; assay: Effects of compounds on aluminium trichloride-induced behavioural inhibition of zebrafish juveniles (Zebrobox); settings: for Total movement distance: mean ± SE, n=8; for Effect on behavioural inhibition of zebrafish induced by aluminium trichloride (in words): compared with the model group
Procedure: The most suitable modelling concentrations were chosen, and then the effect of the compounds on the behaviour of the aluminium trichloride-induced zebrafish juveniles was explored.
The 72 hpf zebrafish were placed in a petri dish, and the normal developing juveniles were selected under a microscope in a 12-well plate. […] The continuous drug solution was exposed for 3 days. […] Each well was juvenile fish developed to 72 h post-exposure (hpe) and added 0.5 mL of culture water and 8 juveniles were set in each experimental group. The well plate was placed in the dark box of the zebrafish behaviour analysis system. The fish was first adapted to 10 min at the beginning of the experiment. The trajectories of the juveniles in each group were collected using zeblab software for 10 min, recorded every 5 min, and exported by software. Then calculate the total distance of each group of zebrafish juveniles.
The zebrafish with 72 hpf after fertilisation is placed in a petri dish. Under normal conditions, the normal developing juvenile fish are selected in a 12-well plate, and 15 juveniles per hole are set. Control group (0.5% DMSO), model group (5.0 mg/L AlCl3), 5.0 mg/L AlCl3 + test compound 5 μg/mL group, 5.0 mg/L AlCl3 + test compound 10 μg/mL group, 5.0 mg/L AlCl3 + test compound 50 μg/mL group, 5.0 mg/L AlCl3 + test compound 100 μg/mL group, three duplicate wells were set at each concentration. After the administration, the zebrafish was placed in a constant temperature incubator at 28 °C to continue the culture for 3 days. Changing the liquid (aquaculture water) every 24 h and removing dead young fish.

[3] = 5 mg/L compound + 5.0 mg/L AlCl3, 3 days
[4] = 10 mg/L compound + 5.0 mg/L AlCl3, 3 days
[5] = 50 mg/L compound + 5.0 mg/L AlCl3, 3 days
[6] = 100 mg/L compound + 5.0 mg/L AlCl3, 3 days

T2 sequence (O42275 24-633): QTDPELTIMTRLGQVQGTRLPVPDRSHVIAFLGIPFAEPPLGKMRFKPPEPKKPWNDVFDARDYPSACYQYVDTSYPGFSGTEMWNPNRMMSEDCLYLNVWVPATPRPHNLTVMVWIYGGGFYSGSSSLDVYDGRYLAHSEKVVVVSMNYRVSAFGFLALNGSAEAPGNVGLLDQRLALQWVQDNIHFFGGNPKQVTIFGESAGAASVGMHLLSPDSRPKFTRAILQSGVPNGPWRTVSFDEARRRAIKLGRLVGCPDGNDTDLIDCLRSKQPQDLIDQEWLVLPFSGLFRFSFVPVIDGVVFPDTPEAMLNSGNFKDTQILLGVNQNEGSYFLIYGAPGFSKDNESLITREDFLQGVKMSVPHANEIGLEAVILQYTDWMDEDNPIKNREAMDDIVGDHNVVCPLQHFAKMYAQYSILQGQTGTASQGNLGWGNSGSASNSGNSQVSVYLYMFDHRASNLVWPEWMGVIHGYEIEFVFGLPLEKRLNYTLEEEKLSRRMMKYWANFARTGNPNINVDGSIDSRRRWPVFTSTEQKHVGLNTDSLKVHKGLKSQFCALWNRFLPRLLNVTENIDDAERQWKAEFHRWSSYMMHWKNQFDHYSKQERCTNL
T1 sequence (P81908 whole entry): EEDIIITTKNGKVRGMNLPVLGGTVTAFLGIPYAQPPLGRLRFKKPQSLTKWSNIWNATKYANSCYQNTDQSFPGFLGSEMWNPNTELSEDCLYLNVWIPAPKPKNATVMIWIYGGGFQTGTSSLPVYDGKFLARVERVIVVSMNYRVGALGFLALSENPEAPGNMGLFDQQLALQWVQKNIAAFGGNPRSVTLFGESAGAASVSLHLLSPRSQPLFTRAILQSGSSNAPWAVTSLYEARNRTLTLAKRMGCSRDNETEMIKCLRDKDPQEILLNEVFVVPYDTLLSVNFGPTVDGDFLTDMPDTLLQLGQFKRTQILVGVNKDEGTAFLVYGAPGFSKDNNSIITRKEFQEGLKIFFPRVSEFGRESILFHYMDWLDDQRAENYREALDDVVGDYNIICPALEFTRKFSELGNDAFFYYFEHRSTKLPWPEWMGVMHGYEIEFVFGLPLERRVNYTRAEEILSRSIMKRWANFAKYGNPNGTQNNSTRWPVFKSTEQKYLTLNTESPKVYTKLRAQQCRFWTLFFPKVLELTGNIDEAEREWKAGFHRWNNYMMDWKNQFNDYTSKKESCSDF

SMILES | IC50 (BuChE from equine serum) | IC50 [1] | Selectivity AChE/BuChE (in words) [1] | AChE inhibitory activity (in words) [1] | BuChE inhibitory activity (in words) (BuChE from equine serum) | SI: selectivity index (IC50 BuChE/IC50 AChE) [1] | Total movement distance [2, 3] | Total movement distance [2, 4] | Total movement distance [2, 5] | Total movement distance [2, 6] | Effect on behavioural inhibition of zebrafish induced by aluminium trichloride (in words) [2] | BuChE inhibitory activity relative to donepezil (BuChE from equine serum; more active than donepezil)
O=C(Nc1ccc(-c2cc3ccc(O)cc3oc2=O)cc1)c1cccc(F)c1 [Compound 4a, 3-[4-(3-fluoro-benzoylamino)-phenyl]-7-hydroxy-coumarin] | 3.89 ± 0.955 µM | > 50 µM | highly selective for BuChE | no inhibitory activity | – | – | – | – | – | – | – | –
O=C(Nc1ccc(-c2cc3ccc(O)cc3oc2=O)cc1)c1ccc(F)cc1 [Compound 4b, 3-[4-(4-fluoro-benzoylamino)-phenyl]-7-hydroxy-coumarin] | 2.44 ± 0.035 µM | > 50 µM | highly selective for BuChE | no inhibitory activity | better than donepezil | <0.050 | – | – | – | – | – | –
Cc1ccc(C(=O)Nc2ccc(-c3cc4ccc(O)cc4oc3=O)cc2)cc1 [Compound 4c, 3-[4-(4-methyl-benzoylamino)-phenyl]-7-hydroxy-coumarin] | 15.6 ± 1.82 µM | > 50 µM | – | no inhibitory activity | – | – | – | – | – | – | – | –
O=C(Nc1ccc(-c2cc3ccc(O)cc3oc2=O)cc1)c1ccc(CCl)cc1 [Compound 4d, 3-[4-(4-chloromethyl-benzoylamino)-phenyl]-7-hydroxy-coumarin] | 8.9 ± 1.18 µM | 47.2 ± 3.57 µM | – | – | – | 0.189 | – | – | – | – | – | –
Cc1cccc(C(=O)Nc2ccc(-c3cc4ccc(O)cc4oc3=O)cc2)c1 [Compound 4e, 3-[4-(3-methyl-benzoylamino)-phenyl]-7-hydroxy-coumarin] | 10.6 ± 0.132 µM | > 50 µM | – | no inhibitory activity | – | <0.211 | – | – | – | – | – | –
O=C(Nc1ccc(-c2cc3ccc(O)cc3oc2=O)cc1)c1cccc(Cl)c1 [Compound 4f, 3-[4-(3-chloro-benzoylamino)-phenyl]-7-hydroxy-coumarin] | 2.56 ± 0.275 µM | 1.94 ± 0.141 µM | – | moderate to excellent AChE inhibitory activity | better than donepezil | 1.319 | 205.7 ± 4.5 cm | 223.2 ± 16.4 cm | 236 ± 11.5 cm | 244.8 ± 13.6 cm | certain therapeutic effects; also recorded: could alleviate the behavioural inhibition symptoms | –
O=C(Nc1ccc(-c2cc3ccc(O)cc3oc2=O)cc1)c1ccccc1F [Compound 4g, 3-[4-(2-fluoro-benzoylamino)-phenyl]-7-hydroxy-coumarin] | 24.5 ± 0.535 µM | > 50 µM | – | no inhibitory activity | – | <0.489 | – | – | – | – | – | –
O=C(Nc1ccc(-c2cc3ccc(O)cc3oc2=O)cc1)c1ccc(Cl)cc1 [Compound 4h, 3-[4-(4-chloro-benzoylamino)-phenyl]-7-hydroxy-coumarin] | 3.88 ± 0.191 µM | > 50 µM | highly selective for BuChE | no inhibitory activity | – | <0.078 | – | – | – | – | – | –
Cc1cc(C)cc(C(=O)Nc2ccc(-c3cc4ccc(O)cc4oc3=O)cc2)c1 [Compound 4i, 3-[4-(3,5-dimethyl-benzoylamino)-phenyl]-7-hydroxy-coumarin] | 2.26 ± 0.225 µM | > 50 µM | highly selective for BuChE | no inhibitory activity | better than donepezil | <0.045 | – | – | – | – | – | –
COc1cccc2cc(-c3ccc(NC(=O)c4cccc(F)c4)cc3)c(=O)oc12 [Compound 4j, 3-[4-(3-fluoro-benzoylamino)-phenyl]-8-methoxy-coumarin] | 0.905 ± 0.081 µM | 4.16 ± 0.161 µM | – | moderate to excellent AChE inhibitory activity | better than donepezil | 0.217 | 208.8 ± 9.6 cm | 226 ± 10.7 cm | 231.8 ± 13.2 cm | 225.7 ± 13.4 cm | certain therapeutic effects; also recorded: could alleviate the behavioural inhibition symptoms | –
COc1cccc2cc(-c3ccc(NC(=O)c4ccc(F)cc4)cc3)c(=O)oc12 [Compound 4k, 3-[4-(4-fluoro-benzoylamino)-phenyl]-8-methoxy-coumarin] | 0.559 ± 0.017 µM | 28 ± 2.56 µM | highly selective for BuChE | – | better than donepezil | 0.020 | 194.9 ± 5.5 cm | 186.7 ± 7.7 cm | 181.8 ± 6.9 cm | 205.7 ± 9.5 cm | – | 5 times
COc1cccc2cc(-c3ccc(NC(=O)c4cccc(Cl)c4)cc3)c(=O)oc12 [Compound 4n, 3-[4-(3-chloro-benzoylamino)-phenyl]-8-methoxy-coumarin] | 0.951 ± 0.159 µM | > 50 µM | – | – | better than donepezil | <0.020 | – | – | – | – | – | –
COc1cccc2cc(-c3ccc(NC(=O)c4cccc(C)c4)cc3)c(=O)oc12 [Compound 4o, 3-[4-(3-methyl-benzoylamino)-phenyl]-8-methoxy-coumarin] | > 50 µM | 8.26 ± 0.581 µM | highly selective for AChE | moderate to excellent AChE inhibitory activity | – | >6.054 | – | – | – | – | – | –
COc1cccc2cc(-c3ccc(NC(=O)c4ccccc4F)cc3)c(=O)oc12 [Compound 4p, 3-[4-(2-fluoro-benzoylamino)-phenyl]-8-methoxy-coumarin] | 16 ± 0.475 µM | 48.9 ± 2.32 µM | – | – | – | 0.326 | – | – | – | – | – | –
COc1ccccc1C(=O)Nc1ccc(-c2cc3cccc(OC)c3oc2=O)cc1 [Compound 4q, 3-[4-(2-methoxy-benzoylamino)-phenyl]-8-methoxy-coumarin] | > 50 µM | 48.2 ± 3.13 µM | – | – | – | >1.037 | – | – | – | – | – | –
O=C(Nc1ccc(-c2cc3ccc(O)c(O)c3oc2=O)cc1)c1ccc(CCl)cc1 [Compound 4s, 3-[4-(4-Chloromethyl-benzoylamino)-phenyl]-7,8-dihydroxy-coumarin] | > 50 µM | 48.2 ± 2.69 µM | – | – | – | >1.037 | – | – | – | – | – | –
COc1cccc2cc(-c3ccc(NC(=O)c4ccco4)cc3)c(=O)oc12 [Compound 5b, 3-[4-(furan-2-formylamino)-phenyl]-8-methoxy-coumarin] | 4.62 ± 0.055 µM | 47.1 ± 1.59 µM | – | – | – | 0.098 | – | – | – | – | – | –
O=C(Nc1ccc(-c2cc3ccc(O)cc3oc2=O)cc1)c1cccc2ccccc12 [Compound 6a, 3-[4-(1-naphthoylamino)-phenyl]-7-hydroxy-coumarin] | > 50 µM | 19.1 ± 0.981 µM | – | – | – | >2.612 | – | – | – | – | – | –
COc1cccc2cc(-c3ccc(NC(=O)c4cccc5ccccc45)cc3)c(=O)oc12 [Compound 6b, 3-[4-(1-naphthoylamino)-phenyl]-8-methoxy-coumarin] | > 50 µM | > 50 µM | – | – | – | – | – | – | – | – | – | –
O=C(Nc1ccc(-c2cc3ccc(O)cc3oc2=O)cc1)c1ccc2ccccc2c1 [Compound 7a, 3-[4-(2-naphthoylamino)-phenyl]-7-hydroxy-coumarin] | 2.07 ± 0.045 µM | > 50 µM | – | – | better than donepezil | – | – | – | – | – | – | –
COc1cccc2cc(-c3ccc(NC(=O)c4ccc(Cl)nc4)cc3)c(=O)oc12 [Compound 7c, 3-[4-(6-chloro-N-nicotinamide)-phenyl]-8-methoxy-coumarin] | 3.38 ± 0.342 µM | 19.2 ± 1.64 µM | – | – | – | 0.176 | – | – | – | – | – | –
